The test system of one assay is FHs74 cells. The conditions noted are these: previous study; cited from earlier work.
A further assay relates to FR on FHs74 cells. Description: Folate receptor blocking studies in FHs74 cells. It is filed as cell-based, human. The conditions noted are these: blocking of P2Ns-NAR uptake. An excerpt: FR Specificity to NAR. The FR-mediated transport of P2Ns-NAR was confirmed by performing blocking studies. Folic acid (FA) strongly binds to FR, with the FA frequently being employed as a targeting ligand on nanoparticles for receptor-mediated drug delivery.^29,30 On the other hand, FA in larger doses is also associated with adverse side effects including toxicity to humans.^16,31,32 The use of NAR as an FR-specific ligand could potentially overcome this limitation and provide a safer alternative for receptor-mediated drug delivery. Selective blockade of FR on FHs74 cells was performed to evaluate the FR-mediated uptake of P2Ns-NAR. Cells were saturated with varying concentrations of blocking agents: antifolate antibody (AB), FA, and MTHFA.

Take `Nc1nc2ncc(CNc3ccc(C(=O)N[C@@H](CCC(=O)O)C(=O)O)cc3)nc2c(=O)[nH]1` [FA, Folic acid]: in the assay with FHs74 cells, the “Time to saturate FHs74 cells” value is “less than 1 hour”.

On to `CN1c2c(nc(N)[nH]c2=O)NCC1CNc1ccc(C(=O)N[C@@H](CCC(=O)O)C(=O)O)cc1` (some centres unmarked) [MTHFA, methyltetrahydrofolic acid], for which, in the assay with FR on FHs74 cells, the “Concentration of blocking agent needed for blocking levels similar to FA” value is recorded as “Higher concentrations”.

The record behind these values is patent US20240285575A1, “NANOPARTICLES WITH ANTI-INFLAMMATORY PROPERTIES AND ENHANCED PENETRATION ACROSS THE BIOLOGICAL BARRIERS TO DELIVER ENCAPSULATED DRUGS” (The Board of Trustees of The University of Alabama, priority 2023, published 2024).
